In publication PMC7686313, “Phase 1 study of mTORC1/2 inhibitor sapanisertib (TAK-228) in advanced solid tumours, with an expansion phase in renal, endometrial or bladder cancer” (British Journal of Cancer, 2020):
Read-outs that look alike come from different tables or passages of the source.

Test: Plasma pharmacokinetics (LC-MS/MS)
Type: in vivo, human
Conditions: for Cmax / AUC(0-t) / half-life / Tmax: human, plasma, oral; for half-life: read-out: t½ (converted); for Tmax: read-out: Tmax, median
Method: Peripheral blood was collected serially to quantify plasma levels of sapanisertib for PK analysis via validated liquid chromatography tandem mass spectrometry with an assay range of 1–1000 ng/mL (MicroConstants, San Diego, CA), during both dose-escalation and expansion phases. Blood samples were collected before each dose and 0.5, 1, 2, 4, 8 and 24 h after dosing on cycle 1, day 1 and cycle 2, day 1, in the dose-escalation phase. In the expansion phase, samples were collected predose and 2, 4 and 6 h postdose on cycle 1, day 1, and then predose and 2 h postdose on day 8, 15 or 22 of cycle 1.

[1] = 6 mg, cycle 2, day 1, QDx3dQW 6 mg
[2] = 7 mg, cycle 2, day 1, QDx5dQW 7 mg
[3] = 9 mg, cycle 2, day 1, QDx3dQW 9 mg

In the case of `CC(C)n1nc(-c2ccc3oc(N)nc3c2)c2c(N)ncnc21` [Sapanisertib], the “Plasma accumulation with repeat dosing” value (any of the schedules) is reported as “did not accumulate in plasma to any appreciable extent”, the “Tmax, median” value (cycle 1, day 1, 2 mg) is reported as 2.0 h and the “Tmax, median” value (cycle 1, day 1, 4 mg) is reported as 2.0 h. For the same compound, the “AUC0–last [%CV]” value (cycle 1, day 1, 6 mg) was 124.3 (NA) ng*h/mL, the t½ (cycle 1, day 1, 6 mg) was 6.8 h and the “Tmax, median” value (cycle 1, day 1, 7 mg) was 1.5 h. For the same compound, the “Tmax, median” value (cycle 1, day 1, 9 mg) was 1.1 h, the “Tmax, median” value (cycle 1, day 1, 12 mg) was 2.0 h and the “Tmax, median” value (cycle 1, day 1, 15 mg) was 2.0 h. The “AUC0–last [%CV]” value (cycle 1, day 1, 16 mg) was 124.9 (NA) ng*h/mL, the “Tmax, median” value (cycle 2, day 1, QD 2 mg) was 2.0 h and the “Tmax, median” value (cycle 2, day 1, QD 6 mg) was 2.0 h. The t½ (cycle 2, day 1, QDx3dQW 6 mg) was 9.1 (NA) h, the t½ (cycle 2, day 1, QDx3dQW 16 mg) was 6.6 (2.29) h and the “Tmax, median” value (cycle 2, day 1, QDx5dQW 10 mg) was 2.0 h. The “Tmax, median” value (cycle 2, day 1, QDx5dQW 13 mg) was 2.0 h, the “Cmax [%CV]” value (cycle 2, day 1, QW 7 mg) was 65.8 (NA) ng/mL and the “Tmax, median” value (cycle 2, day 1, QW 7 mg) was 1 h. The “Cmax [%CV]” value (cycle 2, day 1, QW 10 mg) was 36.2 (NA) ng/mL, the “Tmax, median” value (cycle 2, day 1, QW 15 mg) was 2.0 h and the “Tmax, median” value (cycle 2, day 1, QW 40 mg) was 2.0 h. It also gave a Cmax (2 mg, cycle 1, day 1, 2 mg) of 13.5 ng/mL, an AUC(0-t) (2 mg, cycle 1, day 1, 2 mg, read-out: AUC0–last [%CV]) of 65.4 ng·h/mL and a Cmax (2 mg, cycle 2, day 1, QD 2 mg) of 15.6 ng/mL. It also gave an AUC(0-t) (2 mg, cycle 2, day 1, QD 2 mg, read-out: AUC0–24h [%CV]) of 185 ng·h/mL, a half-life (2 mg, cycle 2, day 1, QD 2 mg) of 8.1 h and a Cmax (4 mg, cycle 1, day 1, 4 mg) of 19.1 ng/mL. It also gave an AUC(0-t) (4 mg, cycle 1, day 1, 4 mg, read-out: AUC0–24h [%CV]) of 178 ng·h/mL, an AUC(0-t) (4 mg, cycle 1, day 1, 4 mg, read-out: AUC0–last [%CV]) of 63.2 ng·h/mL and a half-life (4 mg, cycle 1, day 1, 4 mg) of 7.1 h. It also gave a Cmax (4 mg, cycle 2, day 1, QD 4 mg) of 20.3 ng/mL, an AUC(0-t) (4 mg, cycle 2, day 1, QD 4 mg, read-out: AUC0–24h [%CV]) of 281 ng·h/mL and an AUC(0-t) (4 mg, cycle 2, day 1, QD 4 mg, read-out: AUC0–last [%CV]) of 61.9 ng·h/mL. For the same compound, the Tmax (4 mg, cycle 2, day 1, QD 4 mg) was 3.8 h, the half-life (4 mg, cycle 2, day 1, QD 4 mg) was 10.3 h and the Cmax (6 mg, cycle 1, day 1, 6 mg) was 50.8 ng/mL. The AUC(0-t) (6 mg, cycle 1, day 1, 6 mg, read-out: AUC0–24h [%CV]) was 354 ng·h/mL, the Cmax (6 mg, cycle 2, day 1, QD 6 mg) was 36.9 ng/mL and the AUC(0-t) (6 mg, cycle 2, day 1, QD 6 mg, read-out: AUC0–24h [%CV]) was 327 ng·h/mL. It also gave a half-life (6 mg, cycle 2, day 1, QD 6 mg) of 7.3 h, a Cmax [1] of 59.2 ng/mL and an AUC(0-t) (6 mg, cycle 2, day 1, QDx3dQW 6 mg, read-out: AUC0–24h [%CV]) of 777 ng·h/mL. For the same compound, the Tmax [1] was 4 h, the Cmax (7 mg, cycle 1, day 1, 7 mg) was 46.7 ng/mL and the AUC(0-t) (7 mg, cycle 1, day 1, 7 mg, read-out: AUC0–24h [%CV]) was 327 ng·h/mL. The half-life (7 mg, cycle 1, day 1, 7 mg) was 6.9 h, the Cmax (7 mg, cycle 2, day 1, QD 7 mg) was 51.3 ng/mL and the AUC(0-t) (7 mg, cycle 2, day 1, QD 7 mg, read-out: AUC0–24h [%CV]) was 351 ng·h/mL. For the same compound, the Tmax (7 mg, cycle 2, day 1, QD 7 mg) was 4 h, the half-life (7 mg, cycle 2, day 1, QD 7 mg) was 5.63 h and the Cmax [2] was 49.7 ng/mL. It also gave an AUC(0-t) (7 mg, cycle 2, day 1, QDx5dQW 7 mg, read-out: AUC0–24h [%CV]) of 362 ng·h/mL, a half-life [2] of 6.7 h and an AUC(0-t) (7 mg, cycle 2, day 1, QW 7 mg, read-out: AUC0–24h [%CV]) of 351 ng·h/mL. It also gave a half-life (7 mg, cycle 2, day 1, QW 7 mg) of 5.6 h, a Cmax (9 mg, cycle 1, day 1, 9 mg) of 75.9 ng/mL and an AUC(0-t) (9 mg, cycle 1, day 1, 9 mg, read-out: AUC0–24h [%CV]) of 596 ng·h/mL. The half-life (9 mg, cycle 1, day 1, 9 mg) was 7.5 h, the Cmax [3] was 83.1 ng/mL and the AUC(0-t) (9 mg, cycle 2, day 1, QDx3dQW 9 mg, read-out: AUC0–24h [%CV]) was 707 ng·h/mL. For the same compound, the Tmax [3] was 2.1 h and the half-life [3] was 6.9 h.
